{"source": "patent US20100150999A1", "about": "“THERAPY OF CANCER BASED ON TARGETING ADAPTIVE, INNATE AND/OR […] OF THE IMMUNE RESPONSE” (priority 2006, published 2010)", "key": {"[1]": {"test_system": "TC-1 cells expressing HPV16-E6 and HPV16-E7", "experiment": "TC-1 tumor model in C57BL/6 mice (tumor growth, eradication, survival)", "format": "in vivo", "conditions": "for Effect on tumor growth: large TC-1 tumors, treated day 24/25", "method": "TC-1 cells expressing HPV16-E6 and HPV16-E7 proteins derived from primary mouse lung epithelial cells were obtained from the American Type Culture Collection (LGC Promochem, Molsheim, France) (14). EL4-E7 cells, a mouse lymphoma expressing HPV16-E7 (15). Cells were maintained in RPMI 1640 with GlutaMAX supplemented with 10% heat-inactivated fetal calf serum, 100 units/ml penicillin, 100 μg/ml streptomycin, 0.4 mg/ml geneticin and 5×10^−5 mol/l 2-mercaptoethanol (Life Technologies, Cergy-Pontoise, France).\nThirty μg of CpG ODNs or pU were diluted in 50 μl of Optimen medium (Gibco, Grand Island, N.Y., USA) and mixed with 60 μg of DOTAP (Roche, Mannheim, Germany) diluted in 100 μl of Optimen. The rest of the reagents were diluted in PBS before injection. Cyclophosphamide (CTX) (Sigma, Steinheim, Germany) and doxorubicin (DOX) (Calbiochem, La Jolla, Calif., USA) were diluted respectively in PBS and in sterile water before injection. The different antigenic formulations and adjuvants were injected simultaneously except chemotherapeutic agents that were given 24 h before vaccine. Intravenous administrations were performed by retroorbital injection in a volume of 200 μl, intratumoral administrations were done by injection in a volume of 50 μl and subcutaneous administration were performed in 200 μl.\nTumor growth data were analyzed by non-linear mixed effect models using Monolix software (http://www.math.u-psud.fr/˜lavielle/monolix/). Mean diameters of tumors over time were fitted using the model described in (17) and treatments were compared using the Likelihood Ratio test. Kaplan-Meier plots were used to analyzed survival, and a log rank test was used to examine statistical significance of differences in the survival curves using Prism software (GraphPad Software, Inc. San Diego, USA). Data from in vivo CTL and tetramer staining were compared by ANOVA followed by Dunnett posttest. p values less than 0.05 were considered to be statistically significant."}, "[2]": {"test_system": "TC-1 cells", "conditions": "RAG1-/- mice, 2.5 mg CTX i.p. day 24", "method": "Specific pathogen-free 5-week-old female C57BL/6 mice were purchased from Charles River (L'Arbresle, France) and were kept in the Pasteur Institute animal facilities under pathogen-free conditions with water and food ad libitum. C57BL/6-RAG1^−/− mice were obtained from the Jackson Laboratory, USA. Experiments involving animals were conducted according to the institutional guidelines for animal care.\nTumor cells lines (5×10^5 TC-1 cells or 4×10^6 EL4-E7 cells) were inoculated into the shaved left back of C57BL/6 mice in 200 μl volume of PBS."}, "[3]": {"test_system": "regulatory T cells, myeloid cells, NK cells, tumor-specific CD8+ T cells", "experiment": "Flow cytometric analysis of immune cells in spleen, draining lymph nodes and tumor after treatment", "format": "in vivo, mice", "method": "FIG. 9. Changes in immune cells after tritherapy on day 25. […] Groups of mice were sacrificed before treatment (day 0), 24 hour after CTX alone (day 1) or on days 4, 7 or 11 after tritherapy administration. Spleen, tumor draining lymph nodes and tumor were excised, ground to prepare the cell suspensions, stained and analyzed by flow cytometry. Pooled data of two experiments are shown (n=4-6 mice). Bars represent mean values and the error bars correspond to standard error of the mean. *<0.05 **<0.01. A) Percentage of CD4^+ cells that express CD25 and FoxP3. B) Percentage of CD4^+ cells that are CD25^− and FoxP3^+. C) Percentage of CD4^+ cells that express FoxP3. D) Percentage of CD8^+ cells that are tetramer^+ and CD44^+. E) Percentage of CD11c+ cells. F) Percentage of CD11 b^+ cells. G) Percentage of GR1+ cells. H) Percentage of CD11 b^+ GR1+ positive cells.\nFIG. 11. Phenotype of myeloid cells induced by tritherapy and by tumor growth. […] Tritherapy treated mice received on day 24, 2.5 mg CTX i.p and 24 h later, 50 μg CyaA-E7 and 30 μg CpG-B/DOTAP. PBS treated mice received 200 μl of PBS on day 25. […] Spleens were excised, ground to prepare the cell suspensions, stained and analyzed by flow cytometry. […]\nFACScalibur (Becton Dickinson, Franklin Lakes, N.J., USA) was used for flow cytometry and events were analyzed with CELLQuest software (Becton Dickinson, Franklin Lakes, N.J., USA)."}}, "data": [{"compound": "O=P1(N(CCCl)CCCl)NCCCO1", "note": "(stereo not shown) [CTX, Cyclophosphamide]", "values": [{"measurement": "Effect on tumor growth", "setting": "[1]", "value": "significantly delayed tumor growth"}, {"measurement": "Effect on tumor growth", "setting": "[1]; listed as cyclophosphamide", "value": "transiently control tumor growth"}, {"measurement": "Induction of tumor regression / complete eradication", "setting": "[1]; without CyaA-E7, treated day 24/25", "value": "not able to induce the complete eradication"}, {"measurement": "Tumor growth delay", "setting": "[2]", "value": "not observed"}, {"measurement": "Percentage of CD25+FoxP3+/CD4+ in tumor-infiltrated lymphocytes", "setting": "[3]; four days after administration, from around 50%", "value": "below 30%"}, {"measurement": "Lymphodepletion", "setting": "[3]; spleen and lymph node, TC-1 tumor-bearing mice", "value": "transient lymphodepletion in spleen and lymph node that reverted by day 7"}]}, {"compound": "polyinosinic-polycytidylic acid [PIC]", "values": [{"measurement": "Effect on tumor growth", "setting": "[1]", "value": "none of these TLR ligands administered alone had any effect on the tumor growth"}]}]}
